Measurements taken from ChEMBL document CHEMBL1201862, “PubChem BioAssay data set” (2004).
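Step 1: Grow cells in 96-well plates. Step 2: Expose to compound for 48 hours at 5 concentrations. Step 3: Interpolate endpoints linearly; if unreached, use highest concentration. GI50 is the concentration that inhibits growth by half.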 Active and inactive are the calls of the source. Cut-off read from the data, not from the text of the source: active = GI50 up to about 1.1 µM and inactive = higher. Where a SMILES comes first, the peptide text is derived from it. Non-standard residues stand in square brackets, D forms with d. Residues, ends and D or L forms follow the SMILES beside them. The star is where a group is joined. *: point of attachment. NMeF = CN[CH](Cc1ccccc1)C(=O)O; NMeV = CN[CH](C(=O)O)C(C)C; Boc = CC(C)(C)OC(=O)*

Tests used:
Experiment in all cases: NCI tumour cell line growth inhibition, 48 h
[1] = system: DMS-114
[2] = system: DMS-273
[3] = system: KM-20L2
[4] = system: LXFL 529
[5] = system: HOP-18
[6] = system: DLD-1
[7] = system: XF498
[8] = system: RXF 631
[9] = system: BT-549

| Structure (SMILES) | GI50 [1] | GI50 [2] | GI50 [3] | GI50 [4] | GI50 [5] | GI50 [6] | GI50 [7] | GI50 [8] | GI50 [9] |
| --- | --- | --- | --- | --- | --- | --- | --- | --- | --- |
| CCOC(=O)c1ccc(N2C(=O)Cc3ccccc3C2=O)cc1 | > 100 µM (inactive) | > 100 µM (inactive) | > 100 µM (inactive) | > 100 µM (inactive) | – | – | – | – | – |
| O=S(=O)(/C=C/c1ccc(F)cc1)Cc1ccc(CS(=O)(=O)/C=C/c2ccc(F)cc2)cc1 | > 100 µM (inactive) | > 100 µM (inactive) | > 100 µM (inactive) | > 100 µM (inactive) | > 100 µM (inactive) | > 100 µM (inactive) | > 100 µM (inactive) | > 100 µM (inactive) | – |
| CN(C)c1ccc(/C=C/C=C\c2cc(/C=C/C=C/c3ccc(N(C)C)cc3)[s+]c3ccccc23)cc1.[O-][Cl+3]([O-])([O-])[O-] | 11.1 µM (inactive) | 46.1 µM (inactive) | > 100 µM (inactive) | 8.26 µM (inactive) | – | – | – | – | – |
| CC(=O)OC1COC(N2C(=O)C(=O)c3cc(Br)ccc32)C(OC(C)=O)C1OC(C)=O (stereo not drawn) | > 100 µM (inactive) | > 100 µM (inactive) | > 100 µM (inactive) | > 100 µM (inactive) | > 100 µM (inactive) | > 100 µM (inactive) | > 100 µM (inactive) | > 100 µM (inactive) | – |
| COc1cc2c3c(c1OC)C1(C=CC(=O)C=C1)CC3N(C(=O)OC(C)(C)C(Cl)(Cl)Cl)CC2 (stereo not drawn) | 7.55 µM (inactive) | 9.38 µM (inactive) | 11.4 µM (inactive) | 8.85 µM (inactive) | 22.8 µM (inactive) | 8.45 µM (inactive) | 8.69 µM (inactive) | – | – |
| Cc1cc(C)[n+](CCOc2ccc(/C(=C(/Cl)c3ccccc3)c3ccccc3)cc2)c(C)c1.[O-][Cl+3]([O-])([O-])[O-] | 1.29 µM (inactive) | 0.366 µM (active) | 0.847 µM (active) | 0.506 µM (active) | – | 3.47 µM (inactive) | 0.256 µM (active) | – | – |
| CN1C=C(C(N)=O)C2CC(O)[C@@](NC(=O)CS(N)(=O)=O)(C(=O)O)C2C1 (stereo partly drawn) | 2.52 µM (inactive) | 3.21 µM (inactive) | 3.79 µM (inactive) | – | 8.41 µM (inactive) | 16.8 µM (inactive) | 1.27 µM (inactive) | 2.98 µM (inactive) | – |
| O=C(Nc1ccn(CCO)c(=O)n1)c1ccccc1 | > 100 µM (inactive) | > 100 µM (inactive) | > 100 µM (inactive) | > 100 µM (inactive) | > 100 µM (inactive) | > 100 µM (inactive) | – | > 100 µM (inactive) | – |
| Cc1cc(Cl)cc2c1NC(=O)C2(O)CC(=O)c1ccco1 (stereo not drawn) | > 100 µM (inactive) | > 100 µM (inactive) | – | > 100 µM (inactive) | 4.33 µM (inactive) | > 100 µM (inactive) | > 100 µM (inactive) | > 100 µM (inactive) | > 100 µM (inactive) |
| CCC1CCc2c(c(=O)oc3c2cc(OC)c2cccc(OC)c23)C1 (stereo not drawn) | – | 42.6 µM (inactive) | > 100 µM (inactive) | 44 µM (inactive) | > 100 µM (inactive) | 48.3 µM (inactive) | 29.5 µM (inactive) | – | – |
| CCOC(=O)c1ncn2c1[nH]c(=S)c1ccccc12 | 49.1 µM (inactive) | 44.1 µM (inactive) | > 100 µM (inactive) | > 100 µM (inactive) | > 100 µM (inactive) | > 100 µM (inactive) | – | > 100 µM (inactive) | – |
| [N-]=[N+]=Nc1cc(=O)oc2ccccc12 | 42.2 µM (inactive) | > 100 µM (inactive) | – | > 100 µM (inactive) | > 100 µM (inactive) | > 100 µM (inactive) | – | – | – |
| CC12CCC3=C(CSC4=C3CSc3ccccc34)C1=CCCC2=O (stereo not drawn) | 69.5 µM (inactive) | 82.8 µM (inactive) | 51.6 µM (inactive) | 37.1 µM (inactive) | 39.3 µM (inactive) | 29.4 µM (inactive) | 19.7 µM (inactive) | – | – |
| CN1C(=O)CNS1(=O)=O | > 100 µM (inactive) | > 100 µM (inactive) | – | > 100 µM (inactive) | – | > 100 µM (inactive) | > 100 µM (inactive) | > 100 µM (inactive) | – |
| CCCO/N=[N+](\[O-])N(CC)CC | – | > 100 µM (inactive) | > 100 µM (inactive) | > 100 µM (inactive) | – | – | > 100 µM (inactive) | – | – |
| O=C1C2=C(CCC2)Nc2cccc3ncn1c23 | > 100 µM (inactive) | > 100 µM (inactive) | 41.9 µM (inactive) | > 100 µM (inactive) | 10.6 µM (inactive) | 51.9 µM (inactive) | 34.8 µM (inactive) | – | – |

| Structure (SMILES) | GI50 [1] | GI50 [2] | GI50 [3] | GI50 [4] | GI50 [5] | GI50 [6] | GI50 [7] | GI50 [8] | GI50 [9] |
| --- | --- | --- | --- | --- | --- | --- | --- | --- | --- |
| CCCCCCCCC/C=C1\CCC(CN(C)C)C1=O (stereo not drawn) | 2.26 µM (inactive) | 1.69 µM (inactive) | 2.18 µM (inactive) | 1.34 µM (inactive) | – | 2.06 µM (inactive) | – | 2.07 µM (inactive) | – |
| COc1cc2c(oc(=O)c3cc4ccoc4c(OC)c32)c2cccc(O)c12 | > 100 µM (inactive) | > 100 µM (inactive) | > 100 µM (inactive) | > 100 µM (inactive) | > 100 µM (inactive) | > 100 µM (inactive) | > 100 µM (inactive) | – | – |
| COC(=O)C(C(=O)C(N)=O)c1csc(-n2nc(-c3ccccc3)cc2-c2ccccc2)n1 (stereo not drawn) | 12.8 µM (inactive) | > 31.6 µM (inactive) | 27.4 µM (inactive) | > 31.6 µM (inactive) | 15.6 µM (inactive) | > 31.6 µM (inactive) | 25.2 µM (inactive) | > 10 µM (inactive) | – |
| COC(=O)c1ccccc1NC(=O)C(=O)Cc1nc2c3c(ccc2nc1O)C(=O)c1ccccc1C3=O | 7.62 µM (inactive) | 11.8 µM (inactive) | 32.7 µM (inactive) | 22.6 µM (inactive) | > 100 µM (inactive) | 6.35 µM (inactive) | 26.7 µM (inactive) | 25.2 µM (inactive) | – |
| CN(C)C[C@H]1CC[C@@H](CN(C)C)C1=O | 8.47 µM (inactive) | 8.71 µM (inactive) | 11.2 µM (inactive) | 6.18 µM (inactive) | 8.02 µM (inactive) | 3.94 µM (inactive) | 8.28 µM (inactive) | – | 7.46 µM (inactive) |
| O=C1c2ccccc2C(=O)c2[nH]c(Cc3ccccc3F)nc21 | 33.7 µM (inactive) | 34.6 µM (inactive) | 33.9 µM (inactive) | 31.9 µM (inactive) | 93.8 µM (inactive) | 16.1 µM (inactive) | 53.1 µM (inactive) | – | – |
| COc1ccc2ccccc2c1C1=NC(C)(C)CO1 | – | – | > 100 µM (inactive) | > 100 µM (inactive) | > 100 µM (inactive) | > 100 µM (inactive) | > 100 µM (inactive) | > 100 µM (inactive) | – |
| Cc1ccc(-c2nc3ccccc3c(=O)n2NC2OC(CO)C(O)C(O)C2O)cc1 (stereo not drawn) | > 100 µM (inactive) | > 100 µM (inactive) | > 100 µM (inactive) | > 100 µM (inactive) | > 100 µM (inactive) | – | > 100 µM (inactive) | > 100 µM (inactive) | – |
| COC(=O)C1CCc2c(OC)ccc(OC)c2C1=O (stereo not drawn) | > 100 µM (inactive) | > 100 µM (inactive) | > 100 µM (inactive) | > 100 µM (inactive) | > 100 µM (inactive) | > 100 µM (inactive) | – | – | – |
| Nc1nc(=O)[nH]c2c1cnn2COCCO | > 100 µM (inactive) | > 100 µM (inactive) | 2.33 µM (inactive) | > 100 µM (inactive) | > 100 µM (inactive) | > 100 µM (inactive) | > 100 µM (inactive) | – | – |
| NC(CCC(=O)NC(CSSCCCCS(=O)O)C(=O)NCC(=O)O)C(=O)O (stereo not drawn) | > 100 µM (inactive) | > 100 µM (inactive) | > 100 µM (inactive) | > 100 µM (inactive) | > 100 µM (inactive) | > 100 µM (inactive) | > 100 µM (inactive) | > 100 µM (inactive) | – |
| CC1=NN(C(=O)c2ccc(Cl)cc2)C(=O)/C1=C/c1ccccc1O | > 100 µM (inactive) | – | > 100 µM (inactive) | > 100 µM (inactive) | – | > 100 µM (inactive) | > 100 µM (inactive) | – | – |
| CCOC(=O)C(CC(C)C)NC(=O)C(Cc1ccccc1)NC(=O)CNC(=O)OC(C)(C)C (stereo not drawn) (Boc-Gly-Phe-Leu-OEt; configuration not given here) | – | – | – | – | – | – | – | – | 27.7 µM (inactive) |
| CC(C)C(NC(=O)OC(C)(C)C)C(=O)N(C)C(Cc1ccccc1)C(=O)N(C)C(C(=O)N(C)C(C(=O)O)C(C)C)C(C)C (stereo not drawn) (Boc-V[NMeF][NMeV][NMeV]-OH; configuration not given here) | > 100 µM (inactive) | > 100 µM (inactive) | > 100 µM (inactive) | > 100 µM (inactive) | – | – | > 100 µM (inactive) | – | – |
| Nc1ccc(S(=O)(=O)Nc2cnc3c(Cl)cccc3n2)cc1 [CHLORSULFAQUINOXALINE] | 2.94 µM (inactive) | 152 µM (inactive) | 292 µM (inactive) | 31.4 µM (inactive) | 189 µM (inactive) | 93.1 µM (inactive) | 275 µM (inactive) | – | > 60.5 µM (inactive) |
